Experimental data: US9623021B2, “Nuclear receptor binding agents” (GTX, Inc., priority 2007, dated 2017)
“Also recorded” adds a separate entry of the source.

What was measured:
C-26 colon cancer cells = test: C-26 colon cancer cell proliferation (3H thymidine incorporation); type: cell-based; details: treated for 3 days, FIG. 22
Experimental: The effects of treatment of an ER-β selective NRBA of this invention on cancer cell proliferation was examined using LNCaP prostate cancer cells and C-26 colon cancer cells. LNCaP or C-26 cells were plated in growth medium in 24 well and 6 well plates, respectively. LNCaP cells were treated for 6 days and C-26 cells were treated for 3 days at the indicated concentration. ^3H thymidine incorporation was measured at the end of treatment as an indicator of cell proliferation.

[1] = test system: high fat diet fed C57BL6 mice; test: High fat diet induced obesity model, prevention studies (studies 1 and 2)
Experimental: Study A: C57BL6 male mice of 4 weeks of age were divided into different groups and were fed with a normal or high fat diet (Harlan, Ind.).
For the treatment study (study 3), the animals were maintained on the irrespective diets for 6 weeks and then treated daily as indicated for an additional 18 weeks. Biweekly body weights and food consumption were measured. The animals were sacrificed at the end of each study and blood and tissues were collected for RNA isolation, histology and protein estimation.
Cholesterol and leptin concentrations were measured in serum using ELISA-based methods.
Histology was performed on cryosections and stained with oil 0 red.
Oral glucose tolerance tests (OGTT) were performed on 16-h fasted mice. Mice were given 150 mg glucose by oral gavage through a gastric tube.
Six week old C57BL/6 mice were randomized, based on body weight, into three study groups as shown in the Study Parameters Table below.
The mice were treated for 12 weeks. Twice weekly, the body weight and feed consumption were measured.
A glucose tolerance test was also performed at the completion of the study by administering 150 mg glucose orally to the mice and measuring blood glucose levels at 0, 15, 30 and 60 minutes post glucose administration.
At sacrifice, the mice organ weights were measured and collected for histology, gene expression and protein expressions. Blood was collected for serum marker determination (cholesterol, glucose, leptin).
Dual energy X-ray absorptiometry (DEXA) was performed to measure the body composition in Study 1.
An MRI scan was performed at the beginning of the study, after 6 weeks and at the completion of the study.

SHP promoter = test: SHP promoter-luciferase in HEK-293 cells transfected with FXR and ER-β; type: cell-based; details: FXR and ER-β plasmids, FIG. 12E right panel
Experimental: FIG. 12 depict the effect of ER-β ligand on PPAR-γ function through ligand binding domain (LBD). (A). HEK-293 cells were transfected with 0.25 μg PPRE-LUC, 5 ng CMV-renilla LUC and the indicated receptors (PPAR-γ and ER-β for the left panel and PPAR-α and ER-β for the right panel). The cells were treated 24 hrs after transfection with the indicated ligands and harvested 48 hrs after transfection and firefly luciferase activity was measured and normalized to renilla luciferase. (B). H475 in ER-β LBD is important for its function. H475 in ER-β LBD was mutated to alanine (A) using a site directed mutagenesis kit. Transactivation assay was performed as described in panel A in HEK-293 cells with a titration of ER-β ligands in wild type or ER-β H475A. (C). […] HEK-293 cells were transfected with 0.25 μg PPRE-LUC, 5 ng CMV-renilla LUC and 50 ng of the indicated receptors (PPAR-γ or PPAR-γ and wild type ER-β or PPAR-γ and ER-β H475A). The cells were treated 24 hrs after transfection with the indicated ligands and harvested 48 hrs after transfection and firefly luciferase activity was measured and normalized to renilla luciferase. (D). […] HepG2 cells were transfected with 0.25 μg PPRE-LUC, 5 ng CMV-renilla LUC, 0.5 μg PGC-1 or vector backbone and 100 ng of the indicated receptors (PPAR-γ or PPAR-γ and wild type ER-β or PPAR-γ and ER-β H475A for top panels and PPAR-α or PPAR-α and ER-β for bottom panel). The cells were treated 24 hrs after transfection with the indicated ligands and harvested 48 hrs after transfection and firefly luciferase activity was measured and normalized to renilla luciferase. (E). SHP-1 is an ER-β specific target gene. HEK-293 cells were transfected with 0.25 μg SHP-LUC, 5 ng CMV-renilla LUC and 50 ng of the indicated receptors (FXR and ER-α for the left panel and FXR and ER-β for the right panel). The cells were treated 24 hrs after transfection with the indicated ligands and harvested 48 hrs after transfection and firefly luciferase activity was measured and normalized to renilla luciferase. […]

[2] = test system: high fat diet fed obese mice; test: High fat diet induced obesity model, treatment study (study 3); type: in vivo, C57BL6 male mice; details: high fat diet 6 weeks, then 30 mg/kg/day s.c.
Experimental: For the treatment obesity study (where the animals were fed with high fat diet for six weeks prior to beginning drug treatment for 18 weeks), MRI scans were performed at weeks 0, 6, 12, 18 and 24.
As the first two studies were designed to prevent obesity (i.e. animals were fed with a high fat diet and treated simultaneously), a subsequent study was conducted to evaluate the ability of 12u to affect body composition in mice that were already fed with the high fat diet and were obese. Mice were divided into three groups with one group fed with normal diet (control) and the other two groups fed with the high fat diet for 6 weeks. […] All the animals were maintained in their respective diets during the entire course of the study.

[3] = test system: LNCaP cells and human prostate stromal cells xenograft; test: LNCaP-stromal cell xenograft tumor growth; type: in vivo, nude mice; details: 30 mg/kg/day for 21 days, by day 21
Experimental: Prostate tumor xenografts were established with LNCaP cells and human prostate stromal cells in nude mice to establish the in vivo anti-proliferative effects of these ER-β NRBAs. A 4:1 ratio (based on cell number) of LNCaP:stroma cells was injected subcutaneously in nude mice and allowed to grow until they attained 100 mm^3 in volume, as measured by calipers. […] Tumor volumes were measured twice a week and percent tumor volume calculated, after 10, 14 and 21 days.

PPAR-γ = PPAR-γ transactivation (PPRE-LUC) in HEK-293 cells co-transfected with ER-β; type: cell-based; details: FIG. 12A left panel
Experimental: FIG. 12 depict the effect of ER-β ligand on PPAR-γ function through ligand binding domain (LBD). (A). HEK-293 cells were transfected with 0.25 μg PPRE-LUC, 5 ng CMV-renilla LUC and the indicated receptors (PPAR-γ and ER-β for the left panel and PPAR-α and ER-β for the right panel). The cells were treated 24 hrs after transfection with the indicated ligands and harvested 48 hrs after transfection and firefly luciferase activity was measured and normalized to renilla luciferase. (B). H475 in ER-β LBD is important for its function. H475 in ER-β LBD was mutated to alanine (A) using a site directed mutagenesis kit. Transactivation assay was performed as described in panel A in HEK-293 cells with a titration of ER-β ligands in wild type or ER-β H475A. (C). […] The cells were treated 24 hrs after transfection with the indicated ligands and harvested 48 hrs after transfection and firefly luciferase activity was measured and normalized to renilla luciferase. […] The cells were treated 24 hrs after transfection with the indicated ligands and harvested 48 hrs after transfection and firefly luciferase activity was measured and normalized to renilla luciferase. […] The cells were treated 24 hrs after transfection with the indicated ligands and harvested 48 hrs after transfection and firefly luciferase activity was measured and normalized to renilla luciferase. […]

[4] = test system: THP-1 macrophage cell adhesion to bEND-3 endothelial cells; test: Macrophage adhesion assay (LPS induced THP-1 adhesion to bEND-3 endothelial cells); type: cell-based; details: FIG. 13
Experimental: To determine the anti-inflammatory effects of ER-β NRBAs in vitro, a macrophage adhesion assay was performed. Macrophages adhere to endothelial cells due to elevated levels of pro-inflammatory cytokines. This principle was used in this assay to determine the effect of one of the ER-β NRBAs on bacterial lipopolysaccharide (LPS) induced THP-1 macrophage cell adhesion to bEND-3 endothelial cells.

[5] = target: ERα ligand binding domain (Homo sapiens (Human), UniProt P03372); test: Competitive [3H]-estradiol radioligand binding, ERα (Example 21)
[6] = high fat diet, 30 mg/kg/day s.c., 12 weeks, FIG. 7
[7] = high fat diet, 30 mg/kg/day s.c., Study 2

Chain of ERα ligand binding domain (P03372 whole entry, looked up, species assumed, the tested form may be a part): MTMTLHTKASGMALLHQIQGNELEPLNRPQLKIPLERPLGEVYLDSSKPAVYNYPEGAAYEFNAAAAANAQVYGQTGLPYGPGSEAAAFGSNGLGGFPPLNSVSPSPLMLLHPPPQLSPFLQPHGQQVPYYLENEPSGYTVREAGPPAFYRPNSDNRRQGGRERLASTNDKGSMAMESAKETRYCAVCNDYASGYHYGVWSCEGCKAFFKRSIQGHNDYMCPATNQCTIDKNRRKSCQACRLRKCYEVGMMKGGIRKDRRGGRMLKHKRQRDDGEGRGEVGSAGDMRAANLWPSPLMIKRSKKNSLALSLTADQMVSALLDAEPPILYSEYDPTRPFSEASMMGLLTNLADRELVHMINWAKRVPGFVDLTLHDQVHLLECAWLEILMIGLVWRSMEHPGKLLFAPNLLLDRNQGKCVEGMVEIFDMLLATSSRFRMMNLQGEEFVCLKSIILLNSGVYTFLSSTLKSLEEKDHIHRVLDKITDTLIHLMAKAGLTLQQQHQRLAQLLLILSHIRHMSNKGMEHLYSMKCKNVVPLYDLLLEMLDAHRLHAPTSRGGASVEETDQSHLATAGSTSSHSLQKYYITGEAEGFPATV

O=c1c2c(O)cc(O)cc2c(Br)cn1-c1ccc(O)cc1 [Compound 12u, 4-bromo-6,8-dihydroxy-2-(4-hydroxyphenyl)isoquinolin-1(2H)-one]
growth of C-26 colon cancer cells (C-26 colon cancer cells): significantly inhibited the growth
prevention of body weight increase caused by the high fat diet ([1]; 30 mg/kg/day s.c., 12 weeks, Study 2): more than 50%
gastrocnemius muscle weight [1, 6]: increased gastrocnemius muscle weight
white adipose tissue (WAT) weight [1, 6]: prevented the increase in the WAT weight; also recorded: comparably decreased WAT weight
fat mass (MRI) [1, 7]: reduce fat mass
lean mass (MRI) [1, 7]: increase muscle mass; also recorded: increased the lean mass
prevention of the increase in body fat (MRI) [1, 7]: more than 50%
testes weights ([1]; high fat diet, 12 weeks, FIG. 9A): not altered
serum testosterone levels ([1]; high fat diet, 12 weeks, FIG. 9B): did not affect; also recorded: not altered
serum follicle stimulating hormone (FSH) ([1]; high fat diet, 12 weeks, FIG. 9C): not altered
SHP activity (SHP promoter): neither of the ligands activated SHP
body weight ([2]; FIG. 10A): prevented further gains in body weight
body fat increase (MRI) ([2]; FIG. 10B): reduced
tumor growth (percent tumor volume) [3]: inhibited the growth of tumor significantly
troglitazone-induced PPAR-γ activity (PPAR-γ): partially inhibited
adhesion of 3H labeled THP-1 cells to bEND-3 cells [4]: significantly inhibited the adhesion
Ki [5]: 32 nM
